Assay results taken from PMC12102759 (Protein Science : A Publication of the Protein Society, 2025).
Where two headings read alike, the source gives them in different places.

Tested on: PABPC1 PABC
Type: binding, human
Settings: DMS-BM library, bait PABPC1 PABC, row aa = residue at this position; for DMS-derived PSSM value, position A6 / DMS-derived PSSM value (averaged), position A6 / DMS-derived PSSM value, position A8: A = wild type; for DMS-derived PSSM value (averaged), position L2 / DMS-derived PSSM value, position L4: L = wild type; for DMS-derived PSSM value, position T3 / DMS-derived PSSM value (averaged), position T1: T = wild type
[1] = prey ATXN2, peptide TLNPNAKEFNPRSFSQ
[2] = prey ATXN2, peptide TLNPNAKEFNPRSFSQ, S = wild type
[3] = prey ATXN2, peptide TLNPNAKEFNPRSFSQ, N = wild type
[4] = prey ATXN2, peptide KSTLNPNAKEFNPRSF, F = wild type
[5] = prey ATXN2, peptide KSTLNPNAKEFNPRSF, S = wild type
[6] = prey ATXN2, TLNPNAKEFNPRSF(averaged) over the two overlapping peptides
[7] = prey ATXN2, peptide TLNPNAKEFNPRSFSQ, R = wild type
[8] = prey ATXN2, peptide KSTLNPNAKEFNPRSF, P = wild type
[9] = prey ATXN2, peptide TLNPNAKEFNPRSFSQ, P = wild type
[10] = prey ATXN2, peptide KSTLNPNAKEFNPRSF
[11] = prey ATXN2, peptide KSTLNPNAKEFNPRSF, N = wild type
[12] = prey ATXN2, TLNPNAKEFNPRSF(averaged) over the two overlapping peptides, K = wild type
[13] = prey ATXN2, TLNPNAKEFNPRSF(averaged) over the two overlapping peptides, F = wild type
[14] = prey ATXN2, peptide TLNPNAKEFNPRSFSQ, E = wild type

## TLNPNAKEFNPRSFSQ A6Q (TLNPNQKEFNPRSFSQ)
[1]
  DMS-derived PSSM value, position A6: 0

## TLNPNAKEFNPRSFSQ S15G (TLNPNAKEFNPRSFGQ)
[2]
  DMS-derived PSSM value, position S15: 0.2429

## TLNPNAKEFNPRSFSQ N5G (TLNPGAKEFNPRSFSQ)
[3]
  DMS-derived PSSM value, position N5: 0.01384

## KSTLNPNAKEFNPRSF F16N (KSTLNPNAKEFNPRSN)
[4]
  DMS-derived PSSM value, position F16: 0.04727

## KSTLNPNAKEFNPRSF S2I (KITLNPNAKEFNPRSF)
[5]
  DMS-derived PSSM value, position S2: 0.01393

## TLNPNAKEFNPRSF(averaged) L2R (TRNPNAKEFNPRSF)
[6]
  DMS-derived PSSM value (averaged), position L2: 0

## KSTLNPNAKEFNPRSF S15Q (KSTLNPNAKEFNPRQF)
[5]
  DMS-derived PSSM value, position S15: 0

## TLNPNAKEFNPRSFSQ R12F (TLNPNAKEFNPFSFSQ)
[7]
  DMS-derived PSSM value, position R12: 0.03143

## KSTLNPNAKEFNPRSF P13D (KSTLNPNAKEFNDRSF)
[8]
  DMS-derived PSSM value, position P13: 0.0004732

## TLNPNAKEFNPRSFSQ R12H (TLNPNAKEFNPHSFSQ)
[7]
  DMS-derived PSSM value, position R12: 0.186

## KSTLNPNAKEFNPRSF P6Y (KSTLNYNAKEFNPRSF)
[8]
  DMS-derived PSSM value, position P6: 0

## TLNPNAKEFNPRSFSQ P4E (TLNENAKEFNPRSFSQ)
[9]
  DMS-derived PSSM value, position P4: 0.001688

## TLNPNAKEFNPRSFSQ S15E (TLNPNAKEFNPRSFEQ)
[2]
  DMS-derived PSSM value, position S15: 0.1009

## KSTLNPNAKEFNPRSF S15G (KSTLNPNAKEFNPRGF)
[5]
  DMS-derived PSSM value, position S15: 0

## TLNPNAKEFNPRSFSQ R12D (TLNPNAKEFNPDSFSQ)
[7]
  DMS-derived PSSM value, position R12: 0.05154

## TLNPNAKEFNPRSFSQ S13R (TLNPNAKEFNPRRFSQ)
[2]
  DMS-derived PSSM value, position S13: 0.001962

## KSTLNPNAKEFNPRSF T3Y (KSYLNPNAKEFNPRSF)
[10]
  DMS-derived PSSM value, position T3: 0.005309

## TLNPNAKEFNPRSFSQ N5D (TLNPDAKEFNPRSFSQ)
[3]
  DMS-derived PSSM value, position N5: 0.00392

## KSTLNPNAKEFNPRSF N7I (KSTLNPIAKEFNPRSF)
[11]
  DMS-derived PSSM value, position N7: 0.5578

## TLNPNAKEFNPRSF(averaged) R12Q (TLNPNAKEFNPQSF)
Prey ATXN2, TLNPNAKEFNPRSF(averaged) over the two overlapping peptides, R = wild type
  DMS-derived PSSM value (averaged), position R12: 0.05602

## TLNPNAKEFNPRSF(averaged) K7Q (TLNPNAQEFNPRSF)
[12]
  DMS-derived PSSM value (averaged), position K7: 0.01764

## TLNPNAKEFNPRSF(averaged) T1S (SLNPNAKEFNPRSF)
[6]
  DMS-derived PSSM value (averaged), position T1: 0.002379

## TLNPNAKEFNPRSF(averaged) A6H (TLNPNHKEFNPRSF)
[6]
  DMS-derived PSSM value (averaged), position A6: 0

## TLNPNAKEFNPRSF(averaged) F9Y (TLNPNAKEYNPRSF)
[13]
  DMS-derived PSSM value (averaged), position F9: 0.1609

## KSTLNPNAKEFNPRSF L4E (KSTENPNAKEFNPRSF)
[10]
  DMS-derived PSSM value, position L4: 0

## KSTLNPNAKEFNPRSF S15R (KSTLNPNAKEFNPRRF)
[5]
  DMS-derived PSSM value, position S15: 0.007958

## TLNPNAKEFNPRSFSQ N5Y (TLNPYAKEFNPRSFSQ)
[3]
  DMS-derived PSSM value, position N5: 0.002973

## KSTLNPNAKEFNPRSF P13M (KSTLNPNAKEFNMRSF)
[8]
  DMS-derived PSSM value, position P13: 0

## TLNPNAKEFNPRSF(averaged) L2V (TVNPNAKEFNPRSF)
[6]
  DMS-derived PSSM value (averaged), position L2: 0.005447

## TLNPNAKEFNPRSF(averaged) K7P (TLNPNAPEFNPRSF)
[12]
  DMS-derived PSSM value (averaged), position K7: 0.005399

## TLNPNAKEFNPRSFSQ S13A (TLNPNAKEFNPRAFSQ)
[2]
  DMS-derived PSSM value, position S13: 0.2244

## TLNPNAKEFNPRSF(averaged) F14D (TLNPNAKEFNPRSD)
[13]
  DMS-derived PSSM value (averaged), position F14: 0.01885

## KSTLNPNAKEFNPRSF T3A (KSALNPNAKEFNPRSF)
[10]
  DMS-derived PSSM value, position T3: 0.04081

## KSTLNPNAKEFNPRSF K9P (KSTLNPNAPEFNPRSF)
Prey ATXN2, peptide KSTLNPNAKEFNPRSF, K = wild type
  DMS-derived PSSM value, position K9: 0.004179

## TLNPNAKEFNPRSFSQ N3M (TLMPNAKEFNPRSFSQ)
[3]
  DMS-derived PSSM value, position N3: 0

## TLNPNAKEFNPRSF(averaged) N10S (TLNPNAKEFSPRSF)
Prey ATXN2, TLNPNAKEFNPRSF(averaged) over the two overlapping peptides, N = wild type
  DMS-derived PSSM value (averaged), position N10: 0.02002

## KSTLNPNAKEFNPRSF P6A (KSTLNANAKEFNPRSF)
[8]
  DMS-derived PSSM value, position P6: 0

## KSTLNPNAKEFNPRSF L4P (KSTPNPNAKEFNPRSF)
[10]
  DMS-derived PSSM value, position L4: 0

## KSTLNPNAKEFNPRSF P13T (KSTLNPNAKEFNTRSF)
[8]
  DMS-derived PSSM value, position P13: 0.0002514

## TLNPNAKEFNPRSFSQ P4R (TLNRNAKEFNPRSFSQ)
[9]
  DMS-derived PSSM value, position P4: 0

## TLNPNAKEFNPRSFSQ N5W (TLNPWAKEFNPRSFSQ)
[3]
  DMS-derived PSSM value, position N5: 0.001259

## TLNPNAKEFNPRSF(averaged) A6G (TLNPNGKEFNPRSF)
[6]
  DMS-derived PSSM value (averaged), position A6: 0

## KSTLNPNAKEFNPRSF P6M (KSTLNMNAKEFNPRSF)
[8]
  DMS-derived PSSM value, position P6: 0

## KSTLNPNAKEFNPRSF F11Q (KSTLNPNAKEQNPRSF)
[4]
  DMS-derived PSSM value, position F11: 0

## TLNPNAKEFNPRSFSQ R12S (TLNPNAKEFNPSSFSQ)
[7]
  DMS-derived PSSM value, position R12: 0.1947

## TLNPNAKEFNPRSFSQ P11V (TLNPNAKEFNVRSFSQ)
[9]
  DMS-derived PSSM value, position P11: 0.1131

## KSTLNPNAKEFNPRSF A8E (KSTLNPNEKEFNPRSF)
[10]
  DMS-derived PSSM value, position A8: 0

## TLNPNAKEFNPRSFSQ N3S (TLSPNAKEFNPRSFSQ)
[3]
  DMS-derived PSSM value, position N3: 0.4554

## KSTLNPNAKEFNPRSF F16G (KSTLNPNAKEFNPRSG)
[4]
  DMS-derived PSSM value, position F16: 0

## TLNPNAKEFNPRSFSQ K7M (TLNPNAMEFNPRSFSQ)
Prey ATXN2, peptide TLNPNAKEFNPRSFSQ, K = wild type
  DMS-derived PSSM value, position K7: 0.0004181

## TLNPNAKEFNPRSFSQ A6Y (TLNPNYKEFNPRSFSQ)
[1]
  DMS-derived PSSM value, position A6: 0

## TLNPNAKEFNPRSFSQ E8M (TLNPNAKMFNPRSFSQ)
[14]
  DMS-derived PSSM value, position E8: 0.03925

## TLNPNAKEFNPRSFSQ E8G (TLNPNAKGFNPRSFSQ)
[14]
  DMS-derived PSSM value, position E8: 0

## KSTLNPNAKEFNPRSF N7M (KSTLNPMAKEFNPRSF)
[11]
  DMS-derived PSSM value, position N7: 0.02788

## TLNPNAKEFNPRSF(averaged) A6T (TLNPNTKEFNPRSF)
[6]
  DMS-derived PSSM value (averaged), position A6: 0.133

## TLNPNAKEFNPRSFSQ N3D (TLDPNAKEFNPRSFSQ)
[3]
  DMS-derived PSSM value, position N3: 0.1652

## TLNPNAKEFNPRSF(averaged) E8G (TLNPNAKGFNPRSF)
Prey ATXN2, TLNPNAKEFNPRSF(averaged) over the two overlapping peptides, E = wild type
  DMS-derived PSSM value (averaged), position E8: 0

## TLNPNAKEFNPRSF(averaged) T1A (ALNPNAKEFNPRSF)
[6]
  DMS-derived PSSM value (averaged), position T1: 0.03742

## TLNPNAKEFNPRSFSQ F9K (TLNPNAKEKNPRSFSQ)
Prey ATXN2, peptide TLNPNAKEFNPRSFSQ, F = wild type
  DMS-derived PSSM value, position F9: 0

## KSTLNPNAKEFNPRSF A8Q (KSTLNPNQKEFNPRSF)
[10]
  DMS-derived PSSM value, position A8: 0

## TLNPNAKEFNPRSFSQ S15N (TLNPNAKEFNPRSFNQ)
[2]
  DMS-derived PSSM value, position S15: 0.007151

## KSTLNPNAKEFNPRSF P13R (KSTLNPNAKEFNRRSF)
[8]
  DMS-derived PSSM value, position P13: 0

## KSTLNPNAKEFNPRSF L4K (KSTKNPNAKEFNPRSF)
[10]
  DMS-derived PSSM value, position L4: 0

## KSTLNPNAKEFNPRSF F11M (KSTLNPNAKEMNPRSF)
[4]
  DMS-derived PSSM value, position F11: 0

## KSTLNPNAKEFNPRSF E10G (KSTLNPNAKGFNPRSF)
Prey ATXN2, peptide KSTLNPNAKEFNPRSF, E = wild type
  DMS-derived PSSM value, position E10: 0

## TLNPNAKEFNPRSFSQ N3W (TLWPNAKEFNPRSFSQ)
[3]
  DMS-derived PSSM value, position N3: 0

## TLNPNAKEFNPRSFSQ P4T (TLNTNAKEFNPRSFSQ)
[9]
  DMS-derived PSSM value, position P4: 0.02934

## TLNPNAKEFNPRSFSQ E8I (TLNPNAKIFNPRSFSQ)
[14]
  DMS-derived PSSM value, position E8: 0.01296

## TLNPNAKEFNPRSFSQ S13W (TLNPNAKEFNPRWFSQ)
[2]
  DMS-derived PSSM value, position S13: 0.02517

## KSTLNPNAKEFNPRSF P13V (KSTLNPNAKEFNVRSF)
[8]
  DMS-derived PSSM value, position P13: 0.767

## KSTLNPNAKEFNPRSF T3Q (KSQLNPNAKEFNPRSF)
[10]
  DMS-derived PSSM value, position T3: 0
